Data as given in patent US6737425B1, “N,N-substituted cyclic amine derivatives” (Eisai Co., Ltd., priority 1998, dated 2004).
Several values for one entry are separate records, joined by “and”; a condition that tells them apart may be missing. Equal values may be shown once.

Tests used:
[1] = test system: rat model with occlusion in the middle cerebral artery; assay: Effect (I) of reducing infarct volume in a rat model with occlusion in the middle cerebral artery (2 hours occlusion); assay type: in vivo; conditions: for Infarct volume in the cerebral cortex, Mean: from 30 minutes after occlusion, 6 hours, 2 hours occlusion, 24 hours after occlusion; for reduction of infarct volume in the cerebral cortex: vs control group
Description: Effect (I) of Reducing Infarct Volume in a Rat Model with Occlusion in the Middle Cerebral Artery
The compound in Example 1 was selected as the typical example of the compound of the present invention, and this sample was dissolved in 5.28% mannitol to be adjusted to a dosage of 5 or 10 mg/kg/h just before use. The concentration of the sample was calculated on the basis of the average weight of animals, as shown in the following example. The average weight was determined by measuring the weights of all animals to be used in the experiment.
For occlusion in the middle cerebral artery, an embolus prepared from nylon yarn of 4-0 monofilament (Ethicon, Inc., Somerville, N.J., USA) was used. The end of the nylon embolus was previously rounded with flame, and it was cut into fragments of 25 mm in length, and each fragment was marked at a position 17 mm apart from the end with an oil-based felt pen.
Implantation of a catheter for intravenous administration (Atom venous catheter 3Fr, Atom Medical Co., Ltd., Tokyo) was conducted under anesthesia with 70% laughing gas-2% halothane. The catheter filled with physiological saline was inserted through the thigh vein in the left leg.
Occlusion in the middle cerebral artery was conducted in accordance with the method of Longa et al. (12). Just after the catheter was implanted, the operation was conducted under anesthesia with 70% laughing gas-2% halothane. A rat was allowed to lie on the back and the cervical region was cut open under a stereoscopic microscope for operation, and the part where the common carotid artery at the right side branched into the external carotid artery and the internal carotid artery was confirmed. The external carotid artery was cut at the peripheral side, and the nylon embolus was inserted through the end of the cut external carotid artery into the internal carotid artery. The embolus was inserted until the position 17 mm apart from the end of the embolus reached the point where the external carotid artery was joined to the internal carotid artery, and the embolus was fixed. To initiate blood stream again, the nylon embolus was removed 2 hours after the middle cerebral artery was occluded. […]
Twenty four hours after the middle cerebral artery was occluded, the head was cut off from the rat and the brain was taken out. […] The sample was left at room temperature for at least 1 hour in the TTC solution and then measured for the infarct area. […]

[2] = test system: rat model with occlusion in the middle cerebral artery; assay: Effect (II) of reducing infarct volume in a rat model with occlusion in the middle cerebral artery (permanent occlusion); assay type: in vivo; conditions: for Infarct volume in the cerebral cortex, Mean: from two hours after occlusion, 6 hours, 24 hours after occlusion
Description: Effect (II) of Reducing Infarct volume in a Rat Model with Occlusion in the Middle Cerebral Artery
The typical example of the compound of the present invention (the compound in Example 1) was compared with compounds disclosed in JP 8-508037-A (WO 94/25469, U.S. Pat. No. 5,750,525), which have affinity for AMPA receptors and is effective against cellular necrosis after ischemia in anoxia and hypocalcemia.
The compound of the present invention was dissolved in physiological saline to be adjusted to a dosage of 10 or 20 mg/kg/h just before use.
The control compound was dissolved in physiological saline to be adjusted to a dosage of 3 mg/kg/h just before use.
Occlusion in the middle cerebral artery was conducted according to the method described above. However, the middle cerebral artery was permanently occluded without removing the nylon embolus.
Two hours after the middle cerebral artery was occluded, a syringe containing the medium or the sample (10 or 20 mg/kg/h) was attached to a catheter for intravenous administration, and half (0.31 ml) of the dosage to be infused for 1 hour was intravenously administered for 1 minute. Thereafter, the medium or the sample was administered continuously for 6 hours at a rate of 0.616 ml/h by the use of a syringe pump for infusion. During administration and for 2 hours after administration was finished, the temperature of the rectum was maintained in the range of 37.0 to 38.5° C. in a system for controlling body temperature. After the body temperature control was finished, the animal was returned to a cage and maintained for 1 day in a breeding room.
Two hours after the middle cerebral artery was occluded, a syringe containing the medium or the sample (3 mg/kg/h) was attached to a catheter for intravenous administration, and the medium or the sample was administered continuously for 6 hours at a rate of 0.616 ml/h by means of the syringe pump for infusion. During administration and for 2 hours after administration was finished, the temperature of the rectum was maintained in the range of 37.0 to 38.5° C. in the system for controlling body temperature. After the body temperature control was finished, the animal was returned to a cage and maintained for 1 day in a breeding room.
The middle cerebral artery was permanently occluded by the nylon embolus, and the infarct volume was measured 24 hours after the occlusion was conducted.

[3] = 10 mg/kg/h i.v. (table: 10 mg/kg)

CC(C)C(C#N)(CCCN1CCN(CCOc2ccc(F)cc2)CC1)c1ccccc1 (centres unmarked) [Example 1, 1-[(4-Cyano-5-methyl-4-phenyl)hexyl]-4-[2-(4-fluorophenoxy)ethyl]piperazine]
Infarct volume in the cerebral cortex, Mean ([1]; 5 mg/kg/h i.v. (table: 5 mg/kg)): 162.2±16.3 mm^3 and 162.17 mm^3
reduction of infarct volume in the cerebral cortex ([1]; 5 mg/kg/h i.v.): 28%
Infarct volume in the cerebral cortex, Mean [1, 3]: 135.5±26.2 mm^3 and 135.50 mm^3
reduction of infarct volume in the cerebral cortex ([1]; 10 mg/kg/h i.v.): 40%
degree of reduction of the infarct volume ([2]; 10 mg/kg/h i.v.): 15%
Infarct volume in the cerebral cortex, Mean [2, 3]: 260.7±13.1 mm^3 and 260.7 mm^3
degree of reduction of the infarct volume ([2]; 20 mg/kg/h i.v.): 30%
Infarct volume in the cerebral cortex, Mean ([2]; 20 mg/kg/h i.v. (table: 20 mg/kg)): 215.4±21.3 mm^3 and 215.4 mm^3
